Source: patent US10590123B2, “Pesticidally active amide heterocyclic derivatives with sulphur containing substituents” (SYNGENTA PARTICIPATIONS AG, priority 2014, dated 2020)

How the values were obtained:
Assay type in all cases: in vivo
[1] = test system: Diabrotica Balteata (Corn Root Worm); assay: Example B4: Activity against Diabrotica balteata, sprayed maize sprouts; conditions: 96 h, application rate 200 ppm, L2 larvae, 4 days after infestation, read-out: effect in at least one of the two categories (mortality or growth inhibition)
Procedure: Example B4: Activity Against Diabrotica Balteata (Corn Root Worm)
Maize sprouts, placed on an agar layer in 24-well microtiter plates were treated with aqueous test solutions prepared from 10′000 ppm DMSO stock solutions by spraying. After drying, the plates were infested with L2 larvae (6 to 10 per well). The samples were assessed for mortality and growth inhibition in comparison to untreated samples 4 days after infestation.

[2] = test system: Plutella xylostella (Diamond Back Moth); assay: Example B3: Activity against Plutella xylostella, artificial diet; conditions: 120 h, application rate 200 ppm, L2 larvae, 5 days after infestation, read-out: effect in at least one of the two categories (mortality or growth inhibition)
Procedure: Example B3: Activity Against Plutella xylostella (Diamond Back Moth)
24-well microtiter plates with artificial diet were treated with aqueous test solutions prepared from 10′000 ppm DMSO stock solutions by pipetting. After drying, the plates were infested with L2 larvae (10 to 15 per well). The samples were assessed for mortality and growth inhibition in comparison to untreated samples 5 days after infestation.

[3] = test system: Bemisia tabaci (Cotton White Fly); assay: Example B6: Activity against Bemisia tabaci, sprayed cotton leaf discs; conditions: foliar, 144 h, application rate 200 ppm, adult white flies, 6 days after incubation
Procedure: Example B6: Activity Against Bemisia tabaci (Cotton White Fly)
Cotton leaf discs were placed on agar in 24-well microtiter plates and sprayed with aqueous test solutions prepared from 10′000 ppm DMSO stock solutions. After drying the leaf discs were infested with adult white flies. The samples were checked for mortality 6 days after incubation.

[4] = test system: Spodoptera littoralis (Egyptian Cotton Leaf Worm); assay: Example B2: Activity against Spodoptera littoralis, systemic via lettuce roots in agar; conditions: 144 h, application rate 12.5 ppm, 6 days after infestation, read-out: control in at least one of the three categories (mortality, anti-feedancy or growth inhibition)
Excerpt: Example B2: Activity Against Spodoptera littoralis (Egyptian Cotton Leaf Worm)
Test compounds were applied by pipette from 10′000 ppm DMSO stock solutions into 24-well plates and mixed with agar. Lettuce seeds were placed on the agar and the multi well plate was closed by another plate which contains also agar. After 7 days the roots have absorbed the compound and the lettuce has grown into the lid plate. The lettuce leafs were now cut off into the lid plate. Spodoptera eggs were pipetted through a plastic stencil on a humid gel blotting paper and the plate closed with it.
The samples were assessed for mortality, anti-feedant effect and growth inhibition in comparison to untreated samples 6 days after infestation.

[5] = test system: Euschistus heros (Neotropical Brown Stink Bug); assay: Example B7: Activity against Euschistus heros, sprayed soybean leaf; conditions: 120 h, application rate 200 ppm, N-2 nymphs, 5 days after infestation
Procedure: Example B7: Activity Against Euschistus heros (Neotropical Brown Stink Bug)
Soybean leaf on agar in 24-well microtiter plates were sprayed with aqueous test solutions prepared from 10′000 ppm DMSO stock solutions. After drying the leaf were infested with N-2 nymphs. The samples were assessed for mortality 5 days after infestation.

[6] = test system: Spodoptera littoralis (Egyptian Cotton Leaf Worm); assay: Example B1: Activity against Spodoptera littoralis, sprayed cotton leaf discs; conditions: foliar, 72 h, application rate 200 ppm, L1 larvae, 3 days after infestation, read-out: control in at least one of the three categories (mortality, anti-feedancy or growth inhibition)
Procedure: Example B1: Activity Against Spodoptera littoralis (Egyptian Cotton Leaf Worm)
Cotton leaf discs were placed on agar in 24-well microtiter plates and sprayed with aqueous test solutions prepared from 10′000 ppm DMSO stock solutions. After drying the leaf discs were infested with five L1 larvae. The samples were assessed for mortality, anti-feedant effect, and growth inhibition in comparison to untreated samples 3 days after infestation. Control of Spodoptera littoralis by a test sample is when at least one of mortality, anti-feedant effect, and growth inhibition is higher than the untreated sample.

[7] = test system: Myzus persicae (Green Peach Aphid); assay: Example B8: Activity against Myzus persicae, sprayed sunflower leaf discs; conditions: foliar, 144 h, application rate 200 ppm, aphid population of mixed ages, 6 days after infestation
Procedure: Example B8: Activity Against Myzus persicae (Green Peach Aphid)
Sunflower leaf discs were placed on agar in a 24-well microtiter plate and sprayed with aqueous test solutions prepared from 10′000 ppm DMSO stock solutions. After drying, the leaf discs were infested with an aphid population of mixed ages. The samples were assessed for mortality 6 days after infestation.

CCS(=O)(=O)c1cc(-c2cc(F)cc(F)c2)cnc1C(=O)N(C)c1nnc(C(F)(F)F)s1 [Compound P35]
≥ 80%: percent effect (mortality or growth inhibition) at 200 ppm [1] | percent effect (mortality or growth inhibition) at 200 ppm [2] | mortality at 200 ppm [3] | percent control (mortality, anti-feedant effect or growth inhibition) at 12.5 ppm [4] | mortality at 200 ppm [5] | percent control (mortality, anti-feedant effect or growth inhibition) at 200 ppm [6] | mortality at 200 ppm [7]

CCS(=O)(=O)c1cc(-c2ncc(F)cc2F)cnc1C(=O)N(C)c1nnc(C(F)(F)F)s1 [Compound P44]
≥ 80%: percent effect (mortality or growth inhibition) at 200 ppm [1] | percent effect (mortality or growth inhibition) at 200 ppm [2] | mortality at 200 ppm [3] | percent control (mortality, anti-feedant effect or growth inhibition) at 12.5 ppm [4] | mortality at 200 ppm [5] | percent control (mortality, anti-feedant effect or growth inhibition) at 200 ppm [6] | mortality at 200 ppm [7]

CCS(=O)(=O)c1cc(-c2ncc(Cl)cc2Cl)cnc1C(=O)N(C)c1nnc(C(F)(F)F)s1 [Compound P47]
≥ 80%: percent effect (mortality or growth inhibition) at 200 ppm [1] | percent effect (mortality or growth inhibition) at 200 ppm [2] | mortality at 200 ppm [3] | percent control (mortality, anti-feedant effect or growth inhibition) at 12.5 ppm [4] | mortality at 200 ppm [5] | percent control (mortality, anti-feedant effect or growth inhibition) at 200 ppm [6] | mortality at 200 ppm [7]

CCS(=O)(=O)c1cc(-c2cccc3c2OC(F)(F)O3)cnc1C(=O)N(C)c1nnc(C(F)(F)F)s1 [Compound P29]
≥ 80%: percent effect (mortality or growth inhibition) at 200 ppm [1] | percent effect (mortality or growth inhibition) at 200 ppm [2] | percent control (mortality, anti-feedant effect or growth inhibition) at 12.5 ppm [4] | mortality at 200 ppm [5] | percent control (mortality, anti-feedant effect or growth inhibition) at 200 ppm [6] | mortality at 200 ppm [7]

CCS(=O)(=O)c1cc(-c2ccccn2)cnc1C(=O)N(C)c1nnc(C(F)(F)F)s1 [Compound P54]
≥ 80%: percent effect (mortality or growth inhibition) at 200 ppm [1] | percent effect (mortality or growth inhibition) at 200 ppm [2] | percent control (mortality, anti-feedant effect or growth inhibition) at 12.5 ppm [4] | mortality at 200 ppm [5] | percent control (mortality, anti-feedant effect or growth inhibition) at 200 ppm [6] | mortality at 200 ppm [7]

CCS(=O)(=O)c1cc(-c2ccc(C#N)cc2)cnc1C(=O)N(C)c1nnc(C(F)(F)F)s1 [Compound P28]
≥ 80%: percent effect (mortality or growth inhibition) at 200 ppm [1] | percent effect (mortality or growth inhibition) at 200 ppm [2] | mortality at 200 ppm [3] | percent control (mortality, anti-feedant effect or growth inhibition) at 12.5 ppm [4] | mortality at 200 ppm [5] | percent control (mortality, anti-feedant effect or growth inhibition) at 200 ppm [6] | mortality at 200 ppm [7]

CCS(=O)(=O)c1cc(-c2cccc(SC)c2)cnc1C(=O)N(C)c1nnc(C(F)(F)F)s1 [Compound P30]
≥ 80%: percent effect (mortality or growth inhibition) at 200 ppm [1] | percent effect (mortality or growth inhibition) at 200 ppm [2] | mortality at 200 ppm [3] | mortality at 200 ppm [5] | percent control (mortality, anti-feedant effect or growth inhibition) at 200 ppm [6] | mortality at 200 ppm [7]

CCS(=O)(=O)c1cc(-c2ncc(Cl)cn2)cnc1C(=O)N(C)c1nnc(C(F)(F)F)s1 [Compound P62]
≥ 80%: percent effect (mortality or growth inhibition) at 200 ppm [1] | percent effect (mortality or growth inhibition) at 200 ppm [2] | mortality at 200 ppm [5] | percent control (mortality, anti-feedant effect or growth inhibition) at 200 ppm [6] | mortality at 200 ppm [7]

CCS(=O)(=O)c1cc(-c2ccnc(C(F)(F)F)n2)cnc1C(=O)N(C)c1nnc(C(F)(F)F)s1 [Compound P60]
≥ 80%: percent effect (mortality or growth inhibition) at 200 ppm [1] | percent effect (mortality or growth inhibition) at 200 ppm [2] | mortality at 200 ppm [5] | percent control (mortality, anti-feedant effect or growth inhibition) at 200 ppm [6] | mortality at 200 ppm [7]

CCSc1cc(-n2ccc(C(F)(F)F)n2)cnc1C(=O)Nc1nnc(C(F)(F)C(F)(F)F)s1 [Compound P6]
≥ 80%: percent control (mortality, anti-feedant effect or growth inhibition) at 12.5 ppm [4]

CCS(=O)(=O)c1cc(-c2cccc(C(F)(F)F)c2)cnc1C(=O)N(C)c1nnc(C(F)(F)F)s1 [Compound P37]
≥ 80%: percent effect (mortality or growth inhibition) at 200 ppm [1] | percent effect (mortality or growth inhibition) at 200 ppm [2] | mortality at 200 ppm [3] | mortality at 200 ppm [5] | percent control (mortality, anti-feedant effect or growth inhibition) at 200 ppm [6]

CCS(=O)(=O)c1cc(-c2cc(Cl)ccn2)cnc1C(=O)N(C)c1nnc(C(F)(F)F)s1 [Compound P42]
≥ 80%: percent effect (mortality or growth inhibition) at 200 ppm [1] | percent effect (mortality or growth inhibition) at 200 ppm [2] | percent control (mortality, anti-feedant effect or growth inhibition) at 12.5 ppm [4] | mortality at 200 ppm [5] | percent control (mortality, anti-feedant effect or growth inhibition) at 200 ppm [6] | mortality at 200 ppm [7]

CCS(=O)(=O)c1cc(-c2cncs2)cnc1C(=O)N(C)c1nnc(C(F)(F)F)s1 [Compound P40]
≥ 80%: percent effect (mortality or growth inhibition) at 200 ppm [1] | percent effect (mortality or growth inhibition) at 200 ppm [2] | mortality at 200 ppm [5] | percent control (mortality, anti-feedant effect or growth inhibition) at 200 ppm [6] | mortality at 200 ppm [7]

CCS(=O)(=O)c1cc(-c2ccc(F)cc2F)cnc1C(=O)N(C)c1nnc(C(F)(F)F)s1 [Compound P25]
≥ 80%: percent effect (mortality or growth inhibition) at 200 ppm [1] | percent effect (mortality or growth inhibition) at 200 ppm [2] | mortality at 200 ppm [3] | percent control (mortality, anti-feedant effect or growth inhibition) at 12.5 ppm [4] | mortality at 200 ppm [5] | percent control (mortality, anti-feedant effect or growth inhibition) at 200 ppm [6] | mortality at 200 ppm [7]

CCS(=O)(=O)c1cc(-c2cccc(OC(F)(F)F)c2)cnc1C(=O)N(C)c1nnc(C(F)(F)F)s1 [Compound P31]
≥ 80%: percent effect (mortality or growth inhibition) at 200 ppm [1] | percent effect (mortality or growth inhibition) at 200 ppm [2] | percent control (mortality, anti-feedant effect or growth inhibition) at 12.5 ppm [4] | mortality at 200 ppm [5] | percent control (mortality, anti-feedant effect or growth inhibition) at 200 ppm [6]

CCS(=O)(=O)c1cc(-c2cccc(F)c2)cnc1C(=O)N(C)c1nnc(C(F)(F)F)s1 [Compound P26]
≥ 80%: percent effect (mortality or growth inhibition) at 200 ppm [1] | percent effect (mortality or growth inhibition) at 200 ppm [2] | percent control (mortality, anti-feedant effect or growth inhibition) at 12.5 ppm [4] | mortality at 200 ppm [5] | percent control (mortality, anti-feedant effect or growth inhibition) at 200 ppm [6] | mortality at 200 ppm [7]

CCS(=O)(=O)c1cc(-c2ncccn2)cnc1C(=O)N(C)c1nnc(C(F)(F)F)s1 [Compound P43]
≥ 80%: percent effect (mortality or growth inhibition) at 200 ppm [1] | percent effect (mortality or growth inhibition) at 200 ppm [2] | percent control (mortality, anti-feedant effect or growth inhibition) at 12.5 ppm [4] | mortality at 200 ppm [5] | percent control (mortality, anti-feedant effect or growth inhibition) at 200 ppm [6] | mortality at 200 ppm [7]

CCS(=O)(=O)c1cc(-c2nccc(C(F)(F)F)n2)cnc1C(=O)N(C)c1nnc(C(F)(F)F)s1 [Compound P41]
≥ 80%: percent effect (mortality or growth inhibition) at 200 ppm [1] | percent effect (mortality or growth inhibition) at 200 ppm [2] | mortality at 200 ppm [3] | percent control (mortality, anti-feedant effect or growth inhibition) at 12.5 ppm [4] | mortality at 200 ppm [5] | percent control (mortality, anti-feedant effect or growth inhibition) at 200 ppm [6] | mortality at 200 ppm [7]

CCS(=O)(=O)c1cc(-c2ncc(C(F)(F)F)cc2F)cnc1C(=O)N(C)c1nnc(C(F)(F)F)s1 [Compound P48]
≥ 80%: percent effect (mortality or growth inhibition) at 200 ppm [1] | percent effect (mortality or growth inhibition) at 200 ppm [2] | percent control (mortality, anti-feedant effect or growth inhibition) at 12.5 ppm [4] | mortality at 200 ppm [5] | percent control (mortality, anti-feedant effect or growth inhibition) at 200 ppm [6]

CCS(=O)(=O)c1cc(-c2ccc(C(F)(F)F)cc2)cnc1C(=O)N(C)c1nnc(C(F)(F)F)s1 [Compound P4]
≥ 80%: percent effect (mortality or growth inhibition) at 200 ppm [1] | percent effect (mortality or growth inhibition) at 200 ppm [2] | mortality at 200 ppm [3] | mortality at 200 ppm [5] | percent control (mortality, anti-feedant effect or growth inhibition) at 200 ppm [6]
